In patent publication US20090136968A1, “Novel in vitro methods for studying receptors recognizing volatile compounds” (Chemcom S. A., priority 2005, published 2009):

Columns and labels:
mOR-I7 [1] = molecular target: T1, mOR-I7 (Mus musculus, UniProt Q9QWU6); experiment: CCBSA single cell calcium imaging (Fluo4) on HEK 293T overexpressing mOR-I7; type: cell-based; conditions: bovine olfactory mucus incubated with 16 μl of 1M octanal, 16 hours 4° C.; 20 cells
T1 construct: expressed in transfected cells; host or cells: HEK 293T
T1 sequence (Q9QWU6 1-327): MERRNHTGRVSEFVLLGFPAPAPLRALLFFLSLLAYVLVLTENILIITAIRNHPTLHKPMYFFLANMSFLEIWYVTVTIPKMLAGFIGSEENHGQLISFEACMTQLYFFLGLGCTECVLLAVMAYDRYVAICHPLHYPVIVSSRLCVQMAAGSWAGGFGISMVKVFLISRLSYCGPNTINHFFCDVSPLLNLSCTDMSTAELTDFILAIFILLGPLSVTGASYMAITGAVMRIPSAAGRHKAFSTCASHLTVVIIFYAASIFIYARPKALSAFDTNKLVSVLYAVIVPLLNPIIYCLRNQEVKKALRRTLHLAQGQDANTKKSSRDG
Procedure: FIG. 3: Development of a novel olfactory functional assay. (A) Scheme of the novel assay according to the present invention, CCBSA. See details in the text. (B) Application of CCBSA on a microplate format fluorescent cell-based assay. Increasing volume of octanal were incubated in CCBSA, and applied on HEK 293T cell line overexpressing or not mOR-I7. Calcium flux was followed with fluo4 as calcium tracer. (C) Application of CCBSA on single cell calcium imaging assay. Octanal was incubated in CCBSA and applied on HEK 293T overexpressing mOR-I7. Upper panel depicts kinetics of calcium flux followed with fluo4 as calcium tracer. Octanal-incubated bovine olfactory mucus was applied at 50 s and ATP as positive control was applied at 310 s. Forty X objective was used for this experiment. Middle panel show kinetics of 20 individual cells taken off the field represented in the upper panel. Finally, a representation of the average of the 20 traces is given in the lower panel.
To further validate this assay, single cell calcium imaging assays following the same approach were performed (FIG. 3C). Bovine olfactory mucus was incubated in the presence of 16 μl of a 1M octanal solution for 16 hours at 4° C. […]
This novel assay allows thus an efficient solubilization of odorant and greatly improves the efficacy of the molecule. […] Such disproportion has never been detected in a conventional assay. […]

mOR-I7 [2] = molecular target: T1, mOR-I7; conditions: literature (references); cited from earlier work
mOR-I7 [3] = molecular target: T1, mOR-I7; experiment: Single cell calcium imaging (Fura2) on HEK 293T overexpressing mOR-I7, with or without mucus in buffer; type: cell-based; conditions: 500 μM octanal
Procedure: FIG. 2: Bovine olfactory mucus enhances hORL-424 activation by citronellal. (A and B) Calcium measurement was performed after activation of hORL-424 with citronellal in the presence of different amount of bovine olfactory mucus. 0 to 10 μl of mucus (0 to 10 μg of total protein) have been added to assay buffer. Calcium flux has been followed on FDSS (Hamamatsu Photonics K.K. plate reader, Japan) using Fluo4 as fluorescent dye. Histograms represent fluorescent signal observed in the presence or in the absence of 10 μl of bovine olfactory mucus. (C) Concentration response curve of HEK 293T overexpressing hORL-424 treated with citronellal. Gray boxes represent values obtained in the presence of bovine olfactory mucus. Calcium flux measurements have been performed on FDSS (Hamamatsu Photonics K.K. plate reader, Japan). (D and E) Traces obtained during single cell calcium imaging after addition of 500 μM octanal on HEK 293T overexpressing mOR-I7 in the absence (D) or in the presence of 10 μl of bovine olfactory mucus (E). Fura2 was used as fluorescent dye. Results are expressed as F340/F380 ratiometric measurement.
This bovine olfactory mucus property was also observed on a different OR in other assay format. FIGS. 2 D and E show traces obtained from single cell calcium imaging performed on HEK 293T overexpressing mOR-I7 and activated by octanal. In this assay, Fura2 was used as calcium tracer.

mOR-I7 [4] = molecular target: T1, mOR-I7; experiment: cAMP level immunoassay (TROPIX) in the novel assay on HEK 293T overexpressing mOR-I7; type: cell-based; conditions: BSA solution incubated with 16 μl of 1 M odorant; 20 minutes incubation
Procedure: Similarly to the first step of the fluorescence-based functional assay described above, BP solutions including SA, OBP and/or olfactory mucus (see concentration in the text) were incubated in the presence of odorant in a sealed flask for 16 hours at 4° C. (FIG. 3A). Such odorant-BP complexes were then applied to cultured-cell for 20 minutes at 37° C. cAMP level was then measured using the Tropix kit according to the manufacturer procedures (Applied Biosystem).
As depicted in FIG. 1, binding of odorant molecule to olfactory receptor triggers a cascade of molecular events. In the most commonly accepted pathway, the first second messenger is cAMP synthesized by adenylate cyclase type III. Therefore, a mean to test olfactory receptor activation is to assess variation of cellular cAMP pool after olfactory receptor activation. It is noteworthy that such assay could be performed in parallel to calcium flux assay described above to validate hits obtained during a screening.
Specificity of the novel cell based olfactory functional assay according to the present invention was tested following mOR-I7 activation after injection of these three odorants and two non related odorant, vanilline and piperonyl isobutyrate. Olfactory receptor activation was detected by cellular cAMP pool immunoassay. A solution of BSA was incubated overnight at 4° C.
As discussed above (FIG. 1), activation of olfactory receptor can also be followed through cAMP synthesis. […] Results are expressed as percent of response observed after incubation with 100 μM forskolin, an activator of adenylate cyclases. […] Scheme of the odorant molecules are depicted in FIG. 7E.

For CCCCCCCC=O [octanal], the “activation of cells overexpressing mOR-I7 (single cell fluorescence kinetics)” value (mOR-I7 [1]) is listed as “activated”, the “known activation of mOR-I7” value (mOR-I7 [2]) is listed as “activated specifically” and the “mOR-I7 activation (calcium flux)” value (mOR-I7 [3]; absence of mucus) is listed as “faint activation”. For the same compound, the “mOR-I7 activation (calcium flux)” value (mOR-I7 [3]; presence of 10 μl bovine olfactory mucus, ATP positive control) was “calcium flux similar to the one observed after addition of ATP” and the “mOR-I7 activation by cellular cAMP pool” value (mOR-I7 [4]) was “mOR-I7 ligands”.
